From patent publication US20210087240A1, “BLOCKING GARP CLEAVAGE AND METHODS OF USE THEREOF” (MUSC FOUNDATION FOR RESEARCH DEVELOPMENT, priority 2017, published 2021)
Substitutions are numbered along the chain they refer to.

How the values were obtained:
MC38 colon cancer cells [1] = assay: MC38 colon cancer tumor growth in mice; type: in vivo; conditions: subcutaneous MC38, daily 3 mg/mouse
Description: (§1) FIGS. 7A-7G: Direct thrombin inhibitor Dabigatran Etexilate reduces platelet GARP expression and protects against melanoma and colon cancer. (A) Flow cytometry analysis of surface GARP/LAP complex on murine WT platelets stimulated with and without thrombin and Dabigratan Etexilate. (B) Tumor growth curves of mice subcutaneously injected with B16-F1 melanoma cells and daily treated with 3 mg/mouse of Dabigratan Etexilate. (C) Tumor growth curves of mice subcutaneously injected with MC38 colon cancer cells and daily treated with 3 mg/mouse of Dabigratan Etexilate. (D) Serum was obtained from tumor bearing MC38 colon cancer and active (D) and total TGF-β (E) was measured by ELISA. (F) Serum was obtained from tumor bearing MC38 colon cancer and soluble GARP was measured by ELISA. (G) Percentage of regulatory T cells CD25+ FOXP3+ in the CD4+ tumor-infiltrating CD4+ lymphocytes (TIL) from the indicated mice.
(§2) (A) Tumor growth curves of mice subcutaneously injected with MC38 colon cancer cells and daily treated with 3 mg/mouse of Dabigatran etexilate. […]
(§3) Now, to establish the clinical relevance of the Thrombin-GARP/TGF-β axis, the direct thrombin inhibitor, Dabigatran Etexilate was employed. […] As a further proof of the mechanism employed by dabigatran to exert its antitumor activity, serum active and total TGF-β, and serum GARP concentrations were assessed by ELISA.

TGFβ = TGFβ ELISA on serum of WT B6 mice treated for one week; type: in vivo; conditions: one week daily gavage of 3 mg/mouse
Description: (A) Tumor growth curves of mice subcutaneously injected with MC38 colon cancer cells and daily treated with 3 mg/mouse of Dabigatran etexilate. (B) Tumor growth curves of mice subcutaneously injected with B16-F1 melanoma cells and daily treated with 3 mg/mouse of Dabigatran etexilate. (C) TGFβ ELISA on serum of WT B6 mice treated for one week with daily gavage of 3 mg/mouse of Dabigatran etexilate. Repeated measurement 2-way ANOVA was performed in A and B.

TGF-β = assay: Serum active and total TGF-β ELISA in MC38 tumor bearing mice; type: in vivo
Description: as §1
as §3, with “employed. […] The anti-tumor efficacy of Dabigatran Etexilate was tested in 2 different tumor models.” for “employed.”

soluble GARP = assay: Serum soluble GARP ELISA in MC38 tumor bearing mice; type: in vivo
Description: as §1
as §3, with “employed. […] The anti-tumor efficacy of Dabigatran Etexilate was tested in 2 different tumor models.” for “employed.”

[2] = tested on: thrombin activated platelets; assay: Flow cytometry of surface GARP/LAP on platelets stimulated with thrombin; type: cell-based, murine
Description: as §1
as §3, with “employed. […] The anti-tumor efficacy of Dabigatran Etexilate was tested in 2 different tumor models.” for “employed.”

B16-F1 melanoma cells = assay: B16-F1 melanoma tumor growth in mice; type: in vivo; conditions: subcutaneous B16-F1, daily 3 mg/mouse, no adoptive T cell transfer
Description: as §1, §2, §3

[3] = tested on: regulatory T cells CD25+ FOXP3+; assay: Regulatory T cells among tumor-infiltrating CD4+ lymphocytes; type: in vivo, mice; conditions: CD25+ FOXP3+ in CD4+ TIL
Description: as §1
as §3, with “employed. […] The anti-tumor efficacy of Dabigatran Etexilate was tested in 2 different tumor models.” for “employed.”

MC38 colon cancer cells [4] = assay: Dabigatran and PD1 blocking antibody combination therapy in MC38 tumor model; type: in vivo, mice; conditions: dabigatran 3 mg/mouse daily oral gavage, 200 μg anti-PD1 every 3 days from day 8
Excerpt: (A) Experimental design for Dabigatran and PD1 blocking antibody combination therapy. (B) Tumor growth curves of mice subcutaneously injected with MC38 colon cancer cells and treated with Dabigatran alone, with PD1 blocking antibody, with the combination of Dabigatran and PD1 blocking antibody or left untreated. (C) Survival curve in MC38-bearing mice treated with Dabigatran alone, with PD1 blocking antibody, with the combination of Dabigatran and PD1 blocking antibody or left untreated. Repeated measurement 2 way Anova was performed in B. Log-rank (Mantel-Cox) was performed in C. (D) Serum was collected from the mice under the dual treatment and analyzed for TGFβ concentration by TGFβ ELISA. (E) Platelets count of the mice under dual treatment. Repeated measurement 2-way ANOVA was performed in B. Log-rank (Mantel-Cox) was performed in C. Two-tailed, independent Student's t-test was used in panel D and E.
Next, Dabigatran was used in combination with PD1 blockade to block thrombin and consequentially platelet activation to achieve both a reduction of systemic and circulating TGF-β, and the abrogation of platelet-mediated tumor support. Platelets, indeed, secrete many other factors beyond TGF-β that facilitate tumor immune evasion. Animals harboring palpable tumors were daily treated with 3 mg/mouse dabigatran by oral gavage. […]

thrombin = assay: Competition assay: GARP expressing PreB cells digested with thrombin, western blot; type: cell-based; conditions: 4 μg thrombin
Excerpt: FIGS. 12A-12E: Thrombin cleaves GARP at the amino acid position 267 and 286 between proline and arginine. (A) Surface Flow cytometry analysis for GARP of WT PreB cells and GARP expression in PreB cells expressing WT GARP, GARP with single point mutation 267 aa, GARP with single point mutation 286 aa, GARP with double point mutation 267/286 aa (DM), and relative control vector. (B) Western Blot analysis of cells lysates and conditioned media of PreB cells expressing WT GARP, GARP with single point mutation 267 aa, GARP with single point mutation 286 aa, or GARP with double point mutation 267/286 aa using antibody against GARP. (C) PreB cells expressing WT or DM GARP were digested with increasing concentration of thrombin (0, 1, 2, and 4 μg in 25 μl), followed by western blot analysis. (D) Recombinant fragment of GARP containing the two Proline Arginine thrombin binding sites (T250; SEQ ID NO:1). (E) Western blotting analysis of GARP expressing PreB cells digested with 4 μg of thrombin in presence and absence of 4 μg of T250.
Thus, 3 types of mutants: PR 267-268AA (GARP 267), PR 286-287AA (GARP 286), and double mutant (DM) PR 267-268AA PR 286-287AA (GARP 267-286, -DM) were generated. […] Next, it tested whether GARP-DM was resistant to the cleavage of exogenous thrombin. To this end, PreB GARP-WT and PreB GARP-DM were treated with increasing concentrations of thrombin.

[5] = tested on: T1, GARP double mutant (DM) PR 267-268AA PR 286-287AA, expressed on PreB cells
T1 sequence: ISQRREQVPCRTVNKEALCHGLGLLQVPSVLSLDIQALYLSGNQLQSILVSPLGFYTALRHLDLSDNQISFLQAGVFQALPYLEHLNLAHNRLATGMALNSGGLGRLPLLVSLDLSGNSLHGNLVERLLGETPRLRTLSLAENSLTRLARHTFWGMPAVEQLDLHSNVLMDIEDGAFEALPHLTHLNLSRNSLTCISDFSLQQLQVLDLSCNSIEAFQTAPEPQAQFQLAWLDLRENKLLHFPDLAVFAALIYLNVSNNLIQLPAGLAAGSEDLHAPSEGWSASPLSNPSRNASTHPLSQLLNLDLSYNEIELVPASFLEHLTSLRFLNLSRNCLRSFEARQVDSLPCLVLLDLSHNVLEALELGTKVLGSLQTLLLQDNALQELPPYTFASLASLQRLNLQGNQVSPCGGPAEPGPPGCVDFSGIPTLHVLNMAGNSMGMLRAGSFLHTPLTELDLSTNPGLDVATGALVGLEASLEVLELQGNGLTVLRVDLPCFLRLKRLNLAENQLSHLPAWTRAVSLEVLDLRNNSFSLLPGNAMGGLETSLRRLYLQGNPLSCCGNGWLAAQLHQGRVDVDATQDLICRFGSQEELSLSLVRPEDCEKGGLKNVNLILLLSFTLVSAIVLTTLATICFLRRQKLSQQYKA

[6] = tested on: T2, GARP (Glycoprotein-A Repetitions Predominant Protein), wild type, expressed on PreB cells
T2 sequence: T1 sequence with A249P, A250R, A268P, A269R

[7] = tested on: recombinant form of soluble GARP (sGARP) where the transmembrane domain was replaced by IgG1 Fc fragment

**Q.** With `CCCCCCOC(=O)NC(=N)c1ccc(NCc2nc3cc(C(=O)N(CCC(=O)OCC)c4ccccn4)ccc3n2C)cc1` [Dabigatran, Dabigatran Etexilate] as the molecule, how does the MC38 tumor growth (MC38 colon cancer cells [1]) read?
**A.** sufficient to decrease the rate of tumor growth

**Q.** What about the MC38 tumor growth (MC38 colon cancer cells [1]; listed as Dabigatran etexilate) of the same molecule?
**A.** has anti-cancer effect in MC38 colorectal cancer

**Q.** And the “systemic active TGFβ” value (TGFβ)?
**A.** decreases systemic active TGFβ

**Q.** And the “serum total TGF-β” value (TGF-β)?
**A.** reduced serum total TGF-β

**Q.** What about the “serum active TGF-β, mean” value (TGF-β; difference to untreated not statistically significant) of the same molecule?
**A.** 42.47±23.73

**Q.** What about the “serum soluble GARP” value (soluble GARP) of the same molecule?
**A.** impairs the release of serum soluble GARP from platelets

**Q.** What about the “GARP expression on platelets” value [2] of the same molecule?
**A.** increase of GARP expression on platelets can be neutralized

**Q.** What about the B16-F1 tumor growth (B16-F1 melanoma cells) of the same molecule?
**A.** reduced B16-F1 tumor aggressiveness

**Q.** And the “TGF-β mediated induction of Tregs in the tumor microenvironment” value [3]?
**A.** reduces the TGF-β mediated induction of Tregs

**Q.** What about the tumor growth (MC38 colon cancer cells [4]) of the same molecule?
**A.** effective in reducing tumor growth

**Q.** Which results are given for “T250: Recombinant fragment of GARP containing the two Proline Arginine thrombin binding sites; DLRENKLLHFPDLAVFPRLIYLNVSNNLIQLPAGLPRGSEDLHAPSEGWSA (SEQ ID NO:1) (GARP peptide)”?
**A.** competition with surface GARP in binding with thrombin (thrombin; 4 μg T250): competed with surface GARP in binding with thrombin; GARP cleavage (thrombin; in presence of exogenous thrombin, 4 μg T250, western blot): able to reduce GARP cleavage

**Q.** With thrombin as the molecule, how does the “western blot after digestion of PreB GARP-DM with increasing concentrations of thrombin” value [5] read?
**A.** no cleaved products were observed in GARP-DM

**Q.** And the “western blot after digestion of PreB GARP-WT with increasing concentrations of thrombin” value [6]?
**A.** Both 44 and 29 KD fragments increased in a dose dependent fashion in GARP-WT

**Q.** What about the “western blot of soluble GARP digested with increasing concentrations of thrombin” value [7] of the same molecule?
**A.** digestion of soluble GARP with thrombin gave rise to 3 fragments: GARP full length (72 KD), and the 2 smaller fragments of 44 and 29 KD
